The values below come from patent US8163742B2, “Di-amino-substituted heterocyclic compounds and methods of use” (Amgen Inc., priority 2006, dated 2012).

Structures are written as SMILES.

The test system of the experiment is SCF-stimulated UT-7 cells. The experiment is described as follows: SCF stimulated UT7 proliferation/survival assay. It is filed as cell-based. The settings on record: Homo sapiens, average value. The source says:
SCF and GM-CSF Stimulated UT7 Proliferation/Survival Assay:
The purpose of this assay is to test the general anti-proliferative/cytotoxic effect of small molecule compounds on SCF or GM-CSF-stimulated UT-7 cells. Preventing SCF stimulated proliferation/survival is consistent with an on-mechanism effect whereas inhibition of GM-CSF driven proliferation/survival is indicative of off-target effects. UT-7 is a factor dependent human megakaryoblastic leukemia cell line that can be grown in either IL-3, GM-CSF, EPO or SCF (these cells have been confirmed to carry wild type c-kit receptor). Cells are maintained in growth media (IMDM, 10% HI-FBS, 1×PGS, 1 ng/mL GM-CSF). […] The amount of ATP is then measured as a surrogate marker for cell viability. This is accomplished by adding 50 μL of Perkin Elmer ATP 1 step reagent (as per instructed in the reagent manual, Cat. No. 6016739), incubating at RT for 15 min and reading the luminescence with a Perkin Elmer Topcount NXT™HTS (model c384) plate reader. The amount of SCF or GM-CSF stimulated viable cells in the presence of compound compared with in the presence of vehicle alone (HI control) is calculated using the formula: % control (POC)=(cpd−average LO)/(average HI−average LO)*100. […]

As a reminder, the IC50 is the point on the concentration scale where inhibition reaches its midpoint. In turn, `FC(F)(F)c1cccc(Nc2noc3c(Nc4nccc(-c5cccnc5)n4)c(Cl)ccc23)c1` [Example 1, 6-chloro-N-7-(4-(pyridin-3-yl)pyrimidin-2-yl)-N3-(3-(trifluoromethyl)phenyl)benzo[d]isoxazole-3,7-diamine] returned an IC50 of approximately 44 nM.
